The results in this text go back to patent US20260062443A1 (ALEXION PHARMACEUTICALS, INC., priority 2022, published 2026).

In general, IC50 refers to the concentration that inhibits the measured activity by half.

The test deals with T1, Human complement C1s enzyme (Homo sapiens, UniProt P09871).
T1 sequence (P09871 438-688 limits assumed): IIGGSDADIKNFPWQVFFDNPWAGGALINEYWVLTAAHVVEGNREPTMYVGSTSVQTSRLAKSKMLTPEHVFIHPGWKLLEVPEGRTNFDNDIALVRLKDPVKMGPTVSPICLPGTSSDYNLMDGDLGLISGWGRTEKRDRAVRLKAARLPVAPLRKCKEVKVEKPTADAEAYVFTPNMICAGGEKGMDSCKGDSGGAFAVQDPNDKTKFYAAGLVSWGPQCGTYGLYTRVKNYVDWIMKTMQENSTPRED
T1 sequence (P09871 16-437 partner limits assumed): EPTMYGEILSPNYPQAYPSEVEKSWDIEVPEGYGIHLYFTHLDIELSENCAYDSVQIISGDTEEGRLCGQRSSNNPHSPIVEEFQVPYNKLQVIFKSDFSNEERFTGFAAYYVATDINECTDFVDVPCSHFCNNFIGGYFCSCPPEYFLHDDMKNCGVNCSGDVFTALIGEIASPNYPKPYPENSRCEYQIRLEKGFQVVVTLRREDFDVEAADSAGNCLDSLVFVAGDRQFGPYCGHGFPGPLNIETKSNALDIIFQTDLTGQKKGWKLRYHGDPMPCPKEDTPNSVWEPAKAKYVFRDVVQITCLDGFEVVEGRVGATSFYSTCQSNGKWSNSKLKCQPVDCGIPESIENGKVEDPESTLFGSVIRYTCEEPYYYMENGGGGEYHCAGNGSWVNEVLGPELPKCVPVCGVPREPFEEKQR
Nature of the test: Human C1s enzyme assay. The test is classed as biochemical. The note with it: human complement C1s enzyme 1.16 nM, substrate Z-L-Lys-SBzl 100 μM, 5 min preincubation; read-out: IC50 (Stars), C1s Inhibiting Activity. The method in brief: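 Serum-purified human C1s (1.16 nM final) preincubated 5 min at room temperature with compound in 50 mM Tris, 1 M NaCl, pH 7.5. Z-L-Lys-SBzl and DTNB added at 100 μM each; A405 followed every 30 s for 30 min, and IC50 obtained by nonlinear regression of reaction rates.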

As for `O=C(NCC(=O)N1C[C@@](F)(CF)C[C@H]1C(=O)NCc1cc2cnccc2[nH]1)c1ccc2c(c1)Oc1ccccc1S2` [Compound 26, (2S,4R)-N-((1H-pyrrolo[3,2-c]pyridin-2-yl)methyl)-4-fluoro-4-(fluoromethyl)-1-((phenoxathiine-3-carbonyl)glycyl)pyrrolidine-2-carboxamide], the IC50 was < 100 nM. To `Cc1ccc(Oc2cccc(C(=O)NCC(=O)N3C[C@H](OC(F)F)C[C@H]3C(=O)Nc3cc4cnccc4s3)c2F)cc1` [Compound 376, (2S,4R)-4-(difluoromethoxy)-1-((2-fluoro-3-(p-tolyloxy)benzoyl)glycyl)-N-(thieno[3,2-c]pyridin-2-yl)pyrrolidine-2-carboxamide] belongs > 1000 nM; to `C[C@@H](NC(=O)[C@@H]1C[C@](F)(CO)CN1C(=O)CNC(=O)c1ccc2c(c1)Oc1ccccc1S2)c1cc2cnccc2[nH]1` [Compound 148, (2S,4R)-N-((R)-1-(1H-pyrrolo[3,2-c]pyridin-2-yl)ethyl)-4-fluoro-4-(hydroxymethyl)-1-((phenoxathiine-3-carbonyl)glycyl)pyrrolidine-2-carboxamide], < 100 nM; to `C[C@H](NC(=O)[C@@H]1CC2(CN1C(=O)CNC(=O)c1ccc3c(c1)-c1ccccc1C3(F)F)OCCO2)c1cc2cnccc2[nH]1` [Compound 23, (S)-N-((S)-1-(1H-pyrrolo[3,2-c]pyridin-2-yl)ethyl)-7-((9,9-difluoro-9H-fluorene-3-carbonyl)glycyl)-1,4-dioxa-7-azaspiro[4.4]nonane-8-carboxamide], > 1000 nM. Regarding `Cc1ccc2oc3ccc(C(=O)NCC(=O)N4C[C@H](OC(F)F)C[C@H]4C(=O)NCc4cc5cnccc5[nH]4)cc3c2c1` [Compound 334, (2S,4R)-N-((1H-pyrrolo[3,2-c]pyridin-2-yl)methyl)-4-(difluoromethoxy)-1-((8-methyldibenzo[b,d]furan-2-carbonyl)glycyl)pyrrolidine-2-carboxamide], the IC50 is < 100 nM. To `O=C(NCC(=O)N1C[C@H](OC(F)F)C[C@H]1C(=O)NCc1cc2cnccc2[nH]1)c1ccc(-c2ccccn2)s1` [Compound 381, (2S,4R)-4-(difluoromethoxy)-1-[2-[[5-(2-pyridyl)thiophene-2-carbonyl]amino]acetyl]-N-(1H-pyrrolo[3,2-c]pyridin-2-ylmethyl)pyrrolidine-2-carboxamide] belongs < 100 nM.

Turning to `O=C(NCC(=O)N1C[C@H](OC(F)F)C[C@H]1C(=O)NCc1ccc2c(c1)CCN2)c1ccc2c(c1)Oc1ccccc1S2` [Compound 197, (2S,4R)-4-(difluoromethoxy)-N-(indolin-5-ylmethyl)-1-((phenoxathiine-3-carbonyl)glycyl)pyrrolidine-2-carboxamide], the IC50 is > 1000 nM. Under `C[C@@H](NC(=O)[C@@H]1C[C@@H](OC(F)F)CN1C(=O)CNC(=O)c1ccc2oc3ccccc3c2c1)c1cc2cnccc2[nH]1` [Compound 220, (2S,4R)-N-((R)-1-(1H-pyrrolo[3,2-c]pyridin-2-yl)ethyl)-1-((dibenzo[b,d]furan-2-carbonyl)glycyl)-4-(difluoromethoxy)pyrrolidine-2-carboxamide] stands < 100 nM. Under `O=C(NCC(=O)N1CC2(C[C@H]1C(=O)NCc1cc3cnccc3o1)OCCO2)c1ccc2c(c1)Oc1ccccc1S2` [Compound 50, (S)-N-(furo[3,2-c]pyridin-2-ylmethyl)-7-((phenoxathiine-3-carbonyl)glycyl)-1,4-dioxa-7-azaspiro[4.4]nonane-8-carboxamide] stands 100 to 1000 nM; under `O=C(NCC(=O)N1CC2(C[C@H]1C(=O)NCc1cc3cnc(Cl)cc3[nH]1)OCCO2)c1ccc2c(c1)Oc1ccccc1S2` [Compound 43, (S)-N-((6-chloro-1H-pyrrolo[3,2-c]pyridin-2-yl)methyl)-7-((phenoxathiine-3-carbonyl)glycyl)-1,4-dioxa-7-azaspiro[4.4]nonane-8-carboxamide], > 1000 nM. Under `CS(=O)(=O)[C@@H]1C[C@@H](C(=O)N[C@H](CO)c2cc3cnccc3[nH]2)N(C(=O)CNC(=O)c2ccc3c(c2)Oc2ccccc2S3)C1` [Compound 99, (2S,4R)-N-((S)-2-hydroxy-1-(1H-pyrrolo[3,2-c]pyridin-2-yl)ethyl)-4-(methylsulfonyl)-1-((phenoxathiine-3-carbonyl)glycyl) pyrrolidine-2-carboxamide] stands < 100 nM; under `O=C(NCC(=O)N1C[C@@](F)(CF)C[C@H]1C(=O)NCc1cc2cnccc2[nH]1)c1ccc2oc3ccccc3c2c1` [Compound 187, (2S,4R)-N-((1H-pyrrolo[3,2-c]pyridin-2-yl)methyl)-1-((dibenzo[b,d]furan-2-carbonyl)glycyl)-4-fluoro-4-(fluoromethyl)pyrrolidine-2-carboxamide], < 100 nM. `O=C(NCC(=O)N1C[C@H](OC(F)F)C[C@H]1C(=O)NCc1ccc2ccncc2c1)c1ccc2c(c1)Oc1ccccc1S2` [Compound 249, (2S,4R)-4-(difluoromethoxy)-N-(isoquinolin-7-ylmethyl)-1-((phenoxathiine-3-carbonyl)glycyl)pyrrolidine-2-carboxamide]: the IC50 is > 1000 nM.

`O=C(NCC(=O)N1C[C@H](OC(F)F)C[C@H]1C(=O)NCc1ccc2nccn2c1)c1ccc2c(c1)Oc1ccccc1S2` [Compound 233, (2S,4R)-4-(difluoromethoxy)-N-(imidazo[1,2-a]pyridin-6-ylmethyl)-1-((phenoxathiine-3-carbonyl)glycyl)pyrrolidine-2-carboxamide]: the IC50 is > 1000 nM. To `Cc1ccc2c(c1)oc1ccc(C(=O)NCC(=O)N3C[C@H](OC(F)F)C[C@H]3C(=O)NCc3cc4cnccc4[nH]3)cc12` [Compound 332, (2S,4R)-N-((1H-pyrrolo[3,2-c]pyridin-2-yl)methyl)-4-(difluoromethoxy)-1-((7-methyldibenzo[b,d]furan-2-carbonyl)glycyl)pyrrolidine-2-carboxamide] belongs < 100 nM. Under `C[C@@H](NC(=O)[C@@H]1C[C@](F)(CF)CN1C(=O)CNC(=O)c1ccc(Oc2ccc(F)cc2)cc1)c1cc2cnccc2[nH]1` [Compound 89, (2S,4R)-N-((R)-1-(1H-pyrrolo[3,2-c]pyridin-2-yl)ethyl)-4-fluoro-4-(fluoromethyl)-1-((4-(4-fluorophenoxy)benzoyl)glycyl)pyrrolidine-2-carboxamide] stands > 1000 nM.

For the molecule `Cc1ccc(Oc2ccc(C(=O)NCC(=O)N3C[C@H](OC(F)F)C[C@H]3C(=O)NCc3cc4cnccc4[nH]3)cc2)c(F)c1` [Compound 316, (2S,4R)-N-((1H-pyrrolo[3,2-c]pyridin-2-yl)methyl)-4-(difluoromethoxy)-1-((4-(2-fluoro-4-methylphenoxy)benzoyl)glycyl) pyrrolidine-2-carboxamide], the IC50 was < 100 nM. Under `C[C@@H](NC(=O)[C@@H]1CC2(CN1C(=O)CNC(=O)c1ccc3c(c1)-c1ccccc1C3(F)F)OCCO2)c1cc2cnccc2[nH]1` [Compound 38, (S)-N-((R)-1-(1H-pyrrolo[3,2-c]pyridin-2-yl)ethyl)-7-((9,9-difluoro-9H-fluorene-3-carbonyl)glycyl)-1,4-dioxa-7-azaspiro[4.4]nonane-8-carboxamide] stands < 100 nM; under `O=C(NCC(=O)N1C[C@H](OC(F)F)C[C@H]1C(=O)NCc1ccc2scnc2c1)c1ccc2c(c1)Oc1ccccc1S2` [Compound 222, (2S,4R)-N-(benzo[d]thiazol-5-ylmethyl)-4-(difluoromethoxy)-1-((phenoxathiine-3-carbonyl)glycyl)pyrrolidine-2-carboxamide], > 1000 nM. Under `O=C(NCC(=O)N1CC2(C[C@H]1C(=O)NCc1cc3cnccc3[nH]1)OCCO2)c1ccc2[nH]c3ccccc3c2c1` [Compound 211, (S)-N-((1H-pyrrolo[3,2-c]pyridin-2-yl)methyl)-7-((9H-carbazole-3-carbonyl)glycyl)-1,4-dioxa-7-azaspiro[4.4]nonane-8-carboxamide] stands < 100 nM; under `O=C(NCC(=O)N1CC2(C[C@H]1C(=O)NCc1cc3ncccc3[nH]1)OCCO2)c1ccc2c(c1)-c1ccccc1C2(F)F` [Compound 34, (S)-N-((1H-pyrrolo[3,2-b]pyridin-2-yl)methyl)-7-((9,9-difluoro-9H-fluorene-3-carbonyl)glycyl)-1,4-dioxa-7-azaspiro[4.4]nonane-8-carboxamide], > 1000 nM; under `Cc1cc(CN)cc(C2(NC(=O)[C@@H]3C[C@]4(C)C[C@@H]4N3C(=O)CNC(=O)CCCOc3ccccc3)CC2)c1` [Compound 64, (1S,3S,5S)-N-(1-(3-(aminomethyl)-5-methylphenyl)cyclopropyl)-5-methyl-2-((4-phenoxybutanoyl)glycyl)-2-azabicyclo[3.1.0]hexane-3-carboxamide], > 1000 nM.

On to `O=C(NCC(=O)N1C[C@H](OC(F)F)C[C@H]1C(=O)NCc1cc2cnccc2[nH]1)c1cccc(Oc2ccc(F)cc2F)c1` [Compound 259, (2S,4R)-N-((1H-pyrrolo[3,2-c]pyridin-2-yl)methyl)-4-(difluoromethoxy)-1-((3-(2,4-difluorophenoxy)benzoyl)glycyl)pyrrolidine-2-carboxamide], for which the IC50 was < 100 nM.
